How the values were obtained:
[1] = system: proinflammatory mediators in BALF after intranasal lipopolysaccharide (LPS) challenge; experiment: LPS induced neutrophilia model of lung inflammation and injury (mouse model of ARDS): proinflammatory mediators in BALF; format: in vivo, female C57BL6J mice; set-up: key to IL-1β, 4 hr Statistical significance / TNFα, 24 hr Statistical significance / VEGF-A, 4 hr Statistical significance / MCP-1, 4 hr Statistical significance: * p < 0.05; ** p < 0.01; *** p < 0.001; **** p < 0.0001.; not significant (NS)
Experimental: (§1) Orvepitant was evaluated in the established mouse model of ARDS; the LPS induced neutrophilia model of lung inflammation and injury.
(§2) The effects of vehicle control or orvepitant (250 mg/kg of orvepitant maleate anhydrous crystalline form [Form 1]), dosed orally 1 hour prior to challenge, on pulmonary inflammation induced by a single intranasal challenge dose (10 ug/kg) of either proinflammatory lipopolysaccharide (LPS), or phosphate-buffered saline (PBS) control, was investigated in female C57BL6J mice. Animals were euthanised at either 4 or 24 hours, and inflammatory cell counts and mediators were assayed in bronchoalveolar lavage (BALF) from all animals.
(§3) Key: Bronchoalveolar lavage fluid (BALF); intranasal (in); lipopolysaccharide (LPS); number of female C57BL6J mice/group (n); per os (po); phosphate buffered saline (PBS).

[2] = system: pulmonary inflammation induced by intranasal lipopolysaccharide (LPS) challenge; experiment: LPS induced neutrophilia model of lung inflammation and injury (mouse model of ARDS): inflammatory cell counts in BALF; format: in vivo, female C57BL6J mice; set-up: key to WBC cell counts, 4 hr Statistical significance / Neutrophils cell counts, 4 hr Statistical significance: * p < 0.05; ** p < 0.01; *** p < 0.001; **** p < 0.0001.; not significant (NS)
Experimental: as §1, §2, §3

[3] = 250 mg/kg per os, BALF at 4 hr after LPS intranasal challenge, vs vehicle/LPS group
[4] = 250 mg/kg per os, BALF at 24 hr after LPS intranasal challenge, vs vehicle/LPS group
[5] = 250 mg/kg per os 1 hour prior to LPS intranasal challenge, BALF at 4 hr, vs vehicle/LPS group
[6] = 250 mg/kg per os 1 hour prior to LPS intranasal challenge, BALF at 24 hr, vs vehicle/LPS group

## Cc1cc(F)ccc1[C@H]1C[C@@H](N2CCN3C(=O)CC[C@H]3C2)CCN1C(=O)N(C)[C@H](C)c1cc(C(F)(F)F)cc(C(F)(F)F)c1 [orvepitant, 2-(R)-(4-Fluoro-2-methyl-phenyl)-4-(S)-((8aS)-6-oxo-hexahydro-pyrrolo[1,2-a]-pyrazin-2-yl)-piperidine-1-carboxylic acid [1-(R)-(3,5-bis-trifluoromethyl-phenyl)-ethyl]-methylamide]
[1]; 250 mg/kg orally, at both 4 and 24 hours, vs vehicle treated LPS-challenged animals
  effect on range of proinflammatory mediators measured in the BALF: reduced
[1]; [3]
  IL17A, 4 hr % mean reduction: (36%)
  IL17A, 4 hr Statistical significance: **** (**** p < 0.0001.)
  IL-1β, 4 hr Statistical significance: NS
  IL-6, 4 hr % mean reduction: (44%)
  IL-6, 4 hr Statistical significance: ** (** p < 0.01)
  MCP-1, 4 hr Statistical significance: NS
  TNFα, 4 hr % mean reduction: (26%)
  TNFα, 4 hr Statistical significance: * (* p < 0.05)
  VEGF-A, 4 hr Statistical significance: NS
[1]; [4]
  IL17A, 24 hr % mean reduction: (47%)
  IL17A, 24 hr Statistical significance: * (* p < 0.05)
  IL-1β, 24 hr % mean reduction: (33%)
  IL-6, 24 hr % mean reduction: (39%)
  MCP-1, 24 hr % mean reduction: (56%)
  MCP-1, 24 hr Statistical significance: ** (** p < 0.01)
  TGF-β1, 24 hr % mean reduction: (62%)
  TGF-β1, 24 hr Statistical significance: *** (*** p < 0.001)
  TNFα, 24 hr Statistical significance: NS
  VEGF-A, 24 hr % mean reduction: (32%)
[2]; 250 mg/kg orally, ARDS LPS induced neutrophilia model
  effect on inflammatory cell migration: ameliorated
[2]; [5]
  Neutrophils cell counts, 4 hr Statistical significance: NS
  WBC cell counts, 4 hr Statistical significance: NS
[2]; [6]
  Neutrophils cell counts, 24 hr Statistical significance: *** (*** p < 0.001)
  WBC cell counts, 24 hr Statistical significance: *** (*** p < 0.001)

Source: patent US20230190740A1, “AN NK-1 RECEPTOR ANTAGONIST FOR TREATING A DISEASE SELECTING FROM SEPSIS, SEPTIC SHOCK, ACUTE RESPIRATORY DISTRESS SYNDROME (ARDS) OR MULTIPLE ORGAN D[…] (MODS)” (NeRRe Therapeutics Limited, priority 2020, published 2023)
